Columns and labels:
Klebsiella pneumoniae = test: Growth inhibition of Klebsiella pneumoniae ATCC 700603 incubated for 18 hrs; type: organism-based
Enterococcus faecalis = test: Growth inhibition of Enterococcus faecalis ATCC 29212 incubated in MHB broth for 24 hrs; type: organism-based
Clostridioides difficile [1] = test: Antibacterial activity against Clostridium difficile NSW132 RT027 incubated for 2 to 4 hrs in pre-reduced brucella broth supplemented with haemin/vitamin K and further incubation in anaerobic condition for 48 hrs; type: functional
Pseudomonas aeruginosa = test: Growth inhibition of Pseudomonas aeruginosa ATCC 27853 incubated for 18 hrs; type: organism-based
Escherichia coli = test: Growth inhibition of Escherichia coli ATCC 25922 incubated for 18 hrs; type: organism-based
Acinetobacter baumannii = test: Growth inhibition of Acinetobacter baumannii ATCC 19606 incubated for 18 hrs without shaking by absorbance based monochromator plate reader analysis; type: organism-based, ATCC 19606 = CIP 70.34 = JCM 6841; details: in vitro
Staphylococcus aureus [2] = test: Growth inhibition of Staphylococcus aureus ATCC 29213 incubated in MHB broth for 24 hrs; type: organism-based
Staphylococcus aureus [3] = test: Growth inhibition of methicillin-resistant Staphylococcus aureus ATCC 43300 incubated for 18 hrs; type: organism-based
Clostridioides difficile [4] = test: Antibacterial activity against Clostridium difficile ATCC 700057 incubated for 2 to 4 hrs in pre-reduced brucella broth supplemented with haemin/vitamin K and further incubation in anaerobic condition for 48 hrs; type: functional
[5] = Cytotoxicity against HEK293 cells assessed as decrease in cell viability after 20 hrs by resazurin dye-based fluorescence assay; details: human
Streptococcus pneumoniae = test: Growth inhibition of Streptococcus pneumoniae ATCC 49619 incubated in MHB medium with lysed horse blood and 5% CO2 for 24 hrs; type: organism-based
[6] = Haemolytic activity in sheep erythrocytes assessed as induction of haemolysis at 5 ug/ml incubated for 2 hrs relative to control; type: cell-based, Ovis aries, Erythrocyte; details: read-out: Activity
[7] = Haemolytic activity in sheep erythrocytes assessed as induction of haemolysis at 50 ug/ml incubated for 2 hrs relative to control; type: cell-based, Ovis aries, Erythrocyte; details: read-out: Activity

Row | Compound | MIC (Klebsiella pneumoniae) | MIC (Enterococcus faecalis) | MIC (Clostridioides difficile [1]) | MIC (Pseudomonas aeruginosa) | MIC (Escherichia coli) | MIC (Acinetobacter baumannii) | MIC (Staphylococcus aureus [2]) | MIC (Staphylococcus aureus [3]) | MIC (Clostridioides difficile [4]) | CC50 at 20 h [5] | MIC (Streptococcus pneumoniae) | hemolysis at 2 h, 5 ug/ml [6] | hemolysis at 2 h, 50 ug/ml [7]
1 | CC(C)CCOc1ccccc1-c1ccccc1OCc1cn([C@H](CCCCN)C(=O)N[C@H](CCCNC(=N)N)Cn2cc(CC3CCCCC3)nn2)nn1.Cl.Cl | 16 µg/mL | 4 µg/mL | 16 µg/mL | 32 µg/mL | 8 µg/mL | 8 µg/mL | 4 µg/mL | 2 µg/mL | 16 µg/mL | 19.1 µg/mL | 8 µg/mL | – | –
2 | CC(C)CCOc1ccccc1-c1ccccc1OCc1cn([C@H](CCCNC(=N)N)C(=O)N[C@H](CCCCN)Cn2cc(C3CCCCC3)nn2)nn1.Cl.Cl | 16 µg/mL | 8 µg/mL | 16 µg/mL | 8 µg/mL | 16 µg/mL | 16 µg/mL | 8 µg/mL | 4 µg/mL | 8 µg/mL | > 32 µg/mL | 2 µg/mL | – | –
3 | CC(C)CCOc1ccccc1-c1ccccc1OCc1cn([C@H](CCCCN)C(=O)N[C@H](CCCNC(=N)N)Cn2cc(C3CCCCC3)nn2)nn1.Cl.Cl | 16 µg/mL | 16 µg/mL | 128 µg/mL | 16 µg/mL | 8 µg/mL | 8 µg/mL | 16 µg/mL | 4 µg/mL | 64 µg/mL | 19.8 µg/mL | 32 µg/mL | – | –
4 | COc1cc(NC(=O)[C@@H](CCCNC(=N)N)n2cc(COc3ccccc3-c3ccccc3OCCC(C)C)nn2)cc(OC)c1.Cl | > 32 µg/mL | 4 µg/mL | 32 µg/mL | > 32 µg/mL | > 32 µg/mL | > 32 µg/mL | 4 µg/mL | 8 µg/mL | 32 µg/mL | 12.2 µg/mL | 4 µg/mL | – | –
5 | CCCN(CC1CC1)C(=O)[C@@H](CCCNC(=N)N)n1cc(COc2ccccc2-c2ccccc2OCCC(C)C)nn1.Cl | > 32 µg/mL | 4 µg/mL | 16 µg/mL | > 32 µg/mL | > 32 µg/mL | > 32 µg/mL | 4 µg/mL | 8 µg/mL | 16 µg/mL | 19.7 µg/mL | 2 µg/mL | – | –
6 | CC(C)CCOc1ccc2ccccc2c1-c1c(OCc2cn([C@H](CCCCN)C(=O)N[C@H](CCCNC(=N)N)C(=O)NCCc3ccccc3)nn2)ccc2ccccc12.Cl.Cl | 16 µg/mL | 4 µg/mL | 32 µg/mL | 32 µg/mL | > 32 µg/mL | 8 µg/mL | 8 µg/mL | 2 µg/mL | 16 µg/mL | 15.2 µg/mL | 8 µg/mL | – | –
7 | CC(C)CCOc1ccc2ccccc2c1-c1c(OCC(=O)N[C@H](CCCNC(=N)N)C(=O)NCCc2ccccc2)ccc2ccccc12.Cl | > 32 µg/mL | 4 µg/mL | 32 µg/mL | > 32 µg/mL | > 32 µg/mL | > 32 µg/mL | 2 µg/mL | 4 µg/mL | 32 µg/mL | > 32 µg/mL | 2 µg/mL | – | –
8 | CC(C)CCOc1ccc2ccccc2c1-c1c(OCc2cn([C@H](CCCCN)C(=O)N[C@H](CCCNC(=N)N)Cn3cc(CCc4ccccc4)nn3)nn2)ccc2ccccc12.Cl.Cl | > 32 µg/mL | 4 µg/mL | 16 µg/mL | 16 µg/mL | > 32 µg/mL | 8 µg/mL | 4 µg/mL | 2 µg/mL | 16 µg/mL | > 32 µg/mL | 4 µg/mL | 1.5% | 75.2%
9 | CC(C)CCOc1ccc2ccccc2c1-c1c(OCc2cn([C@H](CCCCN)C(=O)N[C@H](CCCNC(=N)N)Cn3cc(CC4CCCCC4)nn3)nn2)ccc2ccccc12.Cl.Cl | > 32 µg/mL | 4 µg/mL | 16 µg/mL | 32 µg/mL | > 32 µg/mL | 8 µg/mL | 4 µg/mL | 2 µg/mL | 16 µg/mL | 16.6 µg/mL | 4 µg/mL | – | –
